Reference: ChEMBL document CHEMBL1687691, “From taxuspine x to structurally simplified taxanes with remarkable p-glycoprotein inhibitory activity” (ACS Med Chem Lett, 2010)

Assays:
[1] = biological target: T1, ATP-dependent translocase ABCB1 (Homo sapiens, UniProt P08183); assay: Inhibition of human MDR1 expressed in mouse L5178 cells assessed as increase in intracellular accumulation of rhodamine 123 by FACSCalibur flow cytometry; type: cell-based
[2] = biological target: T1, ATP-dependent translocase ABCB1; assay: Inhibition of human MDR1 expressed in mouse L5178 cells assessed as increase in intracellular accumulation of rhodamine 123 AT 0.1 mM by FACSCalibur flow cytometry; type: cell-based; settings: l5178, 100 µM

T1 sequence (P08183 whole entry): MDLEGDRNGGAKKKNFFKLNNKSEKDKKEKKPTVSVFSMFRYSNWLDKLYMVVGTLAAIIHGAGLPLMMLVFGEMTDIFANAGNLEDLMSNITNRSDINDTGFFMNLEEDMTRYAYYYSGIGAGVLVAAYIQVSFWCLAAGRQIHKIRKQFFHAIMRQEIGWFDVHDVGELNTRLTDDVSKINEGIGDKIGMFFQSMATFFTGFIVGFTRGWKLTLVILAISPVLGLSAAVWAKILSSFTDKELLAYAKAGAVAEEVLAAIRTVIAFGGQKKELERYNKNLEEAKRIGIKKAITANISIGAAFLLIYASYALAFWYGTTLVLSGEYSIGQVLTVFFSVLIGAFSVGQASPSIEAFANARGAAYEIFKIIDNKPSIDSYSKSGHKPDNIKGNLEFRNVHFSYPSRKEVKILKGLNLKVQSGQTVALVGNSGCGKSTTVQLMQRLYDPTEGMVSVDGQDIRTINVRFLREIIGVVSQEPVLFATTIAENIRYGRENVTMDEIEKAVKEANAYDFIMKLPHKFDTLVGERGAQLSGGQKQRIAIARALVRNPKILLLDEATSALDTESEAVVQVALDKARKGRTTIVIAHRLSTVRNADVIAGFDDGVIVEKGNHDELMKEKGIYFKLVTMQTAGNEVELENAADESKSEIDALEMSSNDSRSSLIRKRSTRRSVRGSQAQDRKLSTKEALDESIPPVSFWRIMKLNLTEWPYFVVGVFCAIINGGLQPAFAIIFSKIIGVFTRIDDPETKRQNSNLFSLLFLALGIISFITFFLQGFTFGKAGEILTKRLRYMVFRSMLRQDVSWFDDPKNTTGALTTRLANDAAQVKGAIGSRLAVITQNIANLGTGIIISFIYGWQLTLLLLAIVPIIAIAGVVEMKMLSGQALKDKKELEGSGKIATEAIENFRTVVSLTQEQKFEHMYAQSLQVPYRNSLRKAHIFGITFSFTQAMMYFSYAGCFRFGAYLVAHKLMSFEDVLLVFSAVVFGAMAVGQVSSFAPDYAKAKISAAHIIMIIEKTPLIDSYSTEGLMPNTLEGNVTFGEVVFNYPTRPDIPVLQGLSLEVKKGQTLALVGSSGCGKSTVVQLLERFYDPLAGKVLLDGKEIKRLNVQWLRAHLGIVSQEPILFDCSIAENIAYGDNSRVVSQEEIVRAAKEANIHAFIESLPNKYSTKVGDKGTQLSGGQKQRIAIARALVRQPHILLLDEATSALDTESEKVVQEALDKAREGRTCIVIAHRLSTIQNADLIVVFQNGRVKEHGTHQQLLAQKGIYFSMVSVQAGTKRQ

| Structure (SMILES) | IC50 [1] [µM] | Alpha max [2] |
| --- | --- | --- |
| COCCOCO[C@@H]1/C=C\COC(=O)/C=C/[C@@H](OC)[C@@H]2C[C@@H](OC(=O)c3ccccc3)C(C)=C1C2(C)C | 7.2 | 1 |
| COCCOCO[C@@H]1/C=C\C(OC(C)=O)C(OC(C)=O)/C=C/[C@@H](OC)[C@@H]2CCC(C)=C1C2(C)C (stereo not given in full) | 24 | 1 |
| COCCOCO[C@@H]1/C=C\COC(=O)/C=C/[C@@H](OC)[C@@H]2CCC(C)=C1C2(C)C |  | 0.37 |
